These molecules were tested on HCV replicon RNA (GenBank Accession No. AJ242654) (assay: HCV Replicon Assay (replicon RNA reduction and/or Fluc reporter signal)). Details: Hepatitis C virus, 72 h, replicon-containing cells cultured with test compound for up to 3 days.
Assay type: cell-based, Hepatitis C virus
Excerpt: The lack of reliable and readily accessible cell-culture and small animal models permissive for HCV replication has limited the development of new anti-HCV agents. Self-replicating subgenomic HCV systems, termed HCV replicons, have been described and have been widely used to assess the efficacy of anti-HCV inhibitors (see Blight K J, et al., 2000, Efficient initiation of HCV RNA replication in cell culture. Science 290:1972-1974; Blight K J, et al., 2002, Highly permissive cell lines for subgenomic and genomic hepatitis C virus RNA replication. J Virol 76:13001-13014; Ikeda M, et al., 2002. Selectable subgenomic and genome-length dicistronic RNAs derived from an infectious molecular clone of the HCV-N strain of hepatitis C virus replicate efficiently in cultured Huh7 cells. J Virol 76:2997-3006; Lohmann V, et al., 1999, Replication of subgenomic hepatitis C virus RNAs in a hepatoma cell line. Science 285:110-113; Pietschmann T, et al., 2002, Persistent and transient replication of full-length hepatitis C virus genomes in cell culture. J Virol 76:4008-4021; and, Pietschmann T, et al., 2001, Characterization of cell lines carrying self-replicating hepatitis C virus RNAs. J Virol 75:1252-1264).
As described in U.S. Pat. No. 6,630,343, HCV inhibitors are analyzed in the bicistronic replicon by quantitating replicon RNA (GenBank Accession No. AJ242654) reduction and/or the Fluc reporter signal. Replicon-containing cells may be cultured with a test compound of the present invention for up to 3 days. Interferon (IFN) is used as a positive control. In general, the replicon IC50 values shown in Table 1 represent IC50 values determined by replicon RNA reduction.

First: C[C@H](NS(=O)(=O)c1ccc(-c2c(C#N)c3cc(OC(F)F)cnc3n2C2CCC2)nc1)C1CC1 [Cpd 200, 6-[3-cyano-1-cyclobutyl-5-(difluoromethoxy)-1H-pyrrolo[2,3-b]pyridin-2-yl]-N-[(1S)-1-cyclopropylethyl]pyridine-3-sulfonamide]
Second: COc1cnc2c(c1)c(C#N)c(-c1ccc(S(=O)(=O)NC3(C(F)(F)F)CC3)cn1)n2C1CCC1 [Cpd 312, 6-(3-cyano-1-cyclobutyl-5-methoxy-1H-pyrrolo[2,3-b]pyridin-2-yl)-N-[1-(trifluoromethyl)cyclopropyl]pyridine-3-sulfonamide]
The IC50 of the first is higher: 500 to 2000 nM for the first, less than 500 nM for the second.

Cc1ccc2c(n1)c(C#N)c(-c1ccc(S(=O)(=O)N[C@@H](C)C(F)(F)F)cn1)n2C1CCCC1 [Cpd 222, 6-(3-cyano-1-cyclopentyl-5-methyl-1H-pyrrolo[3,2-b]pyridin-2-yl)-N-[(2S)-1,1,1-trifluoropropan-2-yl]pyridine-3-sulfonamide] and Cc1cnc2c(c1)c(C#N)c(-c1ccc(S(=O)(=O)N[C@@H](C)C(F)(F)F)cn1)n2C1CCCC1 [Cpd 255, 6-(3-cyano-1-cyclopentyl-5-methyl-1H-pyrrolo[2,3-b]pyridin-2-yl)-N-[(2S)-1,1,1-trifluoropropan-2-yl]pyridine-3-sulfonamide] cannot be ordered by IC50: less than 500 nM for the first, less than 500 nM for the second.

N#Cc1c(-c2ccc(S(=O)(=O)NC3CC3)cn2)n(C2CCC2)c2ncc(C(F)(F)F)cc12 [Cpd 245, 6-[3-cyano-1-cyclobutyl-5-(trifluoromethyl)-1H-pyrrolo[2,3-b]pyridin-2-yl]-N-cyclopropylpyridine-3-sulfonamide] and CCc1cnc2c(c1)c(C#N)c(-c1ccc(S(=O)(=O)N[C@H](C)C(F)(F)F)cn1)n2C1CCCC1 [Cpd 251, 6-(3-cyano-1-cyclopentyl-5-ethyl-1H-pyrrolo[2,3-b]pyridin-2-yl)-N-[(2R)-1,1,1-trifluoropropan-2-yl]pyridine-3-sulfonamide] cannot be ordered by IC50: less than 500 nM for the first, less than 500 nM for the second.

N#Cc1c(-c2ccc(NS(=O)(=O)C3CC3)cc2)n(C2CCC2)c2ncc(C(F)(F)F)cc12 [Cpd 246, N-{4-[3-cyano-1-cyclobutyl-5-(trifluoromethyl)-1H-pyrrolo[2,3-b]pyridin-2-yl]phenyl}cyclopropanesulfonamide] and CC(C)(C)S(=O)(=O)Nc1ccc(-c2c(C#N)c3cc(C(F)(F)F)cnc3n2C2CC2)cc1 [Cpd 362, N-{4-[3-cyano-1-cyclopropyl-5-(trifluoromethyl)-1H-pyrrolo[2,3-b]pyridin-2-yl]phenyl}-2-methylpropane-2-sulfonamide] fall in the same range of IC50: 500 to 2000 nM for the first, 500 to 2000 nM for the second.

CCc1cnc2c(c1)c(C#N)c(-c1ccc(S(=O)(=O)N[C@@H](C)C(F)(F)F)cn1)n2C1CCCC1 [Cpd 252, 6-(3-cyano-1-cyclopentyl-5-ethyl-1H-pyrrolo[2,3-b]pyridin-2-yl)-N-[(2S)-1,1,1-trifluoropropan-2-yl]pyridine-3-sulfonamide] and C[C@H](NS(=O)(=O)c1ccc(-c2c(C#N)c3cc(N(C)Cc4ccccc4)cnc3n2C2CCC2)nc1)C(F)(F)F [Cpd 350, 6-{5-[benzyl(methyl)amino]-3-cyano-1-cyclobutyl-1H-pyrrolo[2,3-b]pyridin-2-yl}-N-[(2S)-1,1,1-trifluoropropan-2-yl]pyridine-3-sulfonamide] cannot be ordered by IC50: less than 500 nM for the first, less than 500 nM for the second.

First: CC1(NS(=O)(=O)c2ccc(-c3c(C#N)c4cc(C5CC5)cnc4n3C3CCCC3)nc2)CC1 [Cpd 253, 6-(3-cyano-1-cyclopentyl-5-cyclopropyl-1H-pyrrolo[2,3-b]pyridin-2-yl)-N-(1-methylcyclopropyl)pyridine-3-sulfonamide]
Second: COc1cnc2c(c1)c(C#N)c(-c1ccc(S(=O)(=O)NC3(C)CC3)cn1)n2C1CCCC1 [Cpd 269, 6-(3-cyano-1-cyclopentyl-5-methoxy-1H-pyrrolo[2,3-b]pyridin-2-yl)-N-(1-methylcyclopropyl)pyridine-3-sulfonamide]
The IC50 of the first is higher: 500 to 2000 nM for the first, less than 500 nM for the second.

CC1(NS(=O)(=O)c2ccc(-c3c(C#N)c4cc(Cl)cnc4n3C3CCC3)nc2)CC1 [Cpd 280, 6-(5-chloro-3-cyano-1-cyclobutyl-1H-pyrrolo[2,3-b]pyridin-2-yl)-N-(1-methylcyclopropyl)pyridine-3-sulfonamide] and CC1(NS(=O)(=O)c2ccc(-c3c(C#N)c4cc(Cl)cnc4n3C3CCC3)cc2)CC1 [Cpd 284, 4-(5-chloro-3-cyano-1-cyclobutyl-1H-pyrrolo[2,3-b]pyridin-2-yl)-N-(1-methylcyclopropyl)benzenesulfonamide] cannot be ordered by IC50: less than 500 nM for the first, less than 500 nM for the second.

N#Cc1c(-c2ccc(S(=O)(=O)NC3(C(F)(F)F)CC3)cc2)n(C2CCC2)c2ncc(Cl)cc12 [Cpd 281, 4-(5-chloro-3-cyano-1-cyclobutyl-1H-pyrrolo[2,3-b]pyridin-2-yl)-N-[1-(trifluoromethyl)cyclopropyl]benzenesulfonamide] and CC(C)(NS(=O)(=O)c1ccc(-c2c(C#N)c3cc(Cl)cnc3n2C2CCC2)cc1)C(F)(F)F [Cpd 282, 4-(5-chloro-3-cyano-1-cyclobutyl-1H-pyrrolo[2,3-b]pyridin-2-yl)-N-(1,1,1-trifluoro-2-methylpropan-2-yl)benzenesulfonamide] cannot be ordered by IC50: less than 500 nM for the first, less than 500 nM for the second.

Compared with C[C@H](NS(=O)(=O)c1ccc(-c2cc3cc(C(F)(F)F)cnc3n2-c2ccccc2)nc1)C(F)(F)F [Cpd 314, 6-[1-phenyl-5-(trifluoromethyl)-1H-pyrrolo[2,3-b]pyridin-2-yl]-N-[(2S)-1,1,1-trifluoropropan-2-yl]pyridine-3-sulfonamide], C[C@H](NS(=O)(=O)c1ccc(-c2cc3cc(C(F)(F)F)cnc3n2-c2cnccn2)nc1)C(F)(F)F [Cpd 315, 6-[1-(pyrazin-2-yl)-5-(trifluoromethyl)-1H-pyrrolo[2,3-b]pyridin-2-yl]-N-[(2S)-1,1,1-trifluoropropan-2-yl]pyridine-3-sulfonamide] is lower in IC50: 500 to 2000 nM for the first, less than 500 nM for the second. The second is the more potent here.

C[C@H](NS(=O)(=O)c1ccc(-c2c(C#N)c3cc(F)cnc3n2-c2ccccc2)nc1)C(F)(F)F [Cpd 319, 6-(3-cyano-5-fluoro-1-phenyl-1H-pyrrolo[2,3-b]pyridin-2-yl)-N-[(2S)-1,1,1-trifluoropropan-2-yl]pyridine-3-sulfonamide] and Cc1cnc(-n2c(-c3ccc(S(=O)(=O)N[C@@H](C)C(F)(F)F)cn3)c(C#N)c3cc(C(F)(F)F)cnc32)cn1 [Cpd 354, 6-[3-cyano-1-(5-methylpyrazin-2-yl)-5-(trifluoromethyl)-1H-pyrrolo[2,3-b]pyridin-2-yl]-N-[(2S)-1,1,1-trifluoropropan-2-yl]pyridine-3-sulfonamide] cannot be ordered by IC50: less than 500 nM for the first, less than 500 nM for the second.

First: CSc1cnc2c(c1)c(C(=O)O)c(-c1ccc(S(=O)(=O)NC3(C(F)(F)F)CC3)cn1)n2C1CCCC1 [Cpd 330, 1-cyclopentyl-5-(methylsulfanyl)-2-(5-{[1-(trifluoromethyl)cyclopropyl]sulfamoyl}pyridin-2-yl)-1H-pyrrolo[2,3-b]pyridine-3-carboxylic acid]
Second: CC(C)(NS(=O)(=O)c1ccc(-c2c(C(=O)O)c3cc(Cl)cnc3n2C2CCC2)nc1)C(F)(F)F [Cpd 331, 5-chloro-1-cyclobutyl-2-{5-[(1,1,1-trifluoro-2-methylpropan-2-yl)sulfamoyl]pyridin-2-yl}-1H-pyrrolo[2,3-b]pyridine-3-carboxylic acid]
The IC50 of the first is higher: 2000 to 5000 nM for the first, 500 to 2000 nM for the second. The second is the more potent here.

Cc1cnc2c(c1)c(C(N)=O)c(-c1ccc(S(=O)(=O)NC3(C(F)(F)F)CC3)cc1)n2C1CCC1 [Cpd 342, 1-cyclobutyl-5-methyl-2-(4-{[1-(trifluoromethyl)cyclopropyl]sulfamoyl}phenyl)-1H-pyrrolo[2,3-b]pyridine-3-carboxamide] and Cc1cnc2c(c1)c(C(N)=O)c(-c1ccc(S(=O)(=O)N[C@@H](C)C(F)(F)F)cc1)n2C1CCC1 [Cpd 343, 1-cyclobutyl-5-methyl-2-(4-{[(2S)-1,1,1-trifluoropropan-2-yl]sulfamoyl}phenyl)-1H-pyrrolo[2,3-b]pyridine-3-carboxamide] cannot be ordered by IC50: less than 500 nM for the first, less than 500 nM for the second.

First: CN(Cc1ccccc1)c1cnc2c(c1)c(C#N)c(-c1ccc(NS(=O)(=O)C(C)(C)C)cc1)n2C1CCC1 [Cpd 352, N-(4-{5-[benzyl(methyl)amino]-3-cyano-1-cyclobutyl-1H-pyrrolo[2,3-b]pyridin-2-yl}phenyl)-2-methylpropane-2-sulfonamide]
Second: CN(Cc1ccccc1)c1cnc2c(c1)c(C#N)c(-c1ccc(S(=O)(=O)NC(C)(C)C(F)(F)F)cc1)n2C1CCC1 [Cpd 353, 4-{5-[benzyl(methyl)amino]-3-cyano-1-cyclobutyl-1H-pyrrolo[2,3-b]pyridin-2-yl}-N-(1,1,1-trifluoro-2-methylpropan-2-yl)benzenesulfonamide]
The IC50 of the first is lower: 500 to 2000 nM for the first, 2000 to 5000 nM for the second. The first is the more potent here.

Molecule CC(C)(NS(=O)(=O)c1ccc(-c2c(C#N)c3cc(C(F)(F)F)cnc3n2C2CC2)cc1)C(F)(F)F [Cpd 361, 4-[3-cyano-1-cyclopropyl-5-(trifluoromethyl)-1H-pyrrolo[2,3-b]pyridin-2-yl]-N-(1,1,1-trifluoro-2-methylpropan-2-yl)benzenesulfonamide] has an IC50 of 2000 to 5000 nM.

— patent US9593108B2, “Compounds and methods for antiviral treatment” (PTC Therapeutics, Inc., priority 2009, dated 2017)
